Assay results as given in US7498352B2, “TGF-β superfamily production/secretion promoter” (Takeda Pharmaceutical Company Limited, priority 2001, dated 2009).

What was measured:
GDF-15 = GDF-15 expression in dorsal root ganglion of STZ diabetic neuropathy rats, real time quantitative RT-PCR; type: in vivo, rat; conditions: STZ (70 mg/kg) male SD rats, 10 mg/kg body weight/day orally for 4 months
Experimental: Streptozotocin (STZ) was administered to 6-week-old male SD rats (n=5-8) at 70 mg/kg to prepare diabetic neuropathy models. Starting from 4 months of the STZ administration, compound (5) was orally administered to the rats for 4 months at the dose of 10 mg/kg body weight/day. Then, dorsal root ganglion of the rats was removed, treated with ISOGEN solution (NIPPON GENE CO., LTD.) and the total RNA was extracted.
Using the obtained total RNA, a primer depicted in 5′-ACTGCATGCCAACCAGAGC-3′ (SEQ ID:1) and a primer depicted in 5′-[…]-3′ (SEQ ID:2), which were prepared based on the reported mRNA sequence of GDF-15, and a fluorescent probe having a GDF-15 specific sequence, […] (SEQ ID:3), and acidic ribosomal phosphoprotein PO as an endogenous control, a real time quantitative RT-PCR (Applied Biosystems) was performed.

GDNF = GDNF content of sciatic nerve of KKAy mice fed compound, measured by ELISA; type: in vivo, mouse; conditions: 17 week-old female KKAy mice, powder feed containing 0.01% of compound for 7 weeks
Experimental: 17 week-old female KKAy mice (n=10-12) were maintained for 7 weeks on a powder feed (CRF-1, manufactured by Oriental Yeast Co., Ltd.) containing 0.01% of compound (5). Then, sciatic nerve of the mouse was taken and stored at −80° C., until use for the measurement (ca. 10 months).
The stored sciatic nerve was ultrasonicated in a 20-fold volume of a homogenized buffer (0.1 M tris hydrochloride buffer containing 1M sodium chloride, 2% BSA, 2 mM EDTA, 80 trypsin unit/L of aprotinin, 0.02% sodium azide, pH 7.6) and insoluble materials were separated by centrifugation (15,000 rpm, 30 min). The GDNF content of the supernatant was measured by the following ELISA method.
Thus, an anti-hGDNF goat antibody (100 μg/ml) (Genzyme-Techne) was distributed in 10-μl portions in the wells of 96-well round bottom plates and antibody adsorption was allowed to proceed by 2 hours incubation at room temperature. After removing the antibody, each well was washed three times with a washing solution. […] After washing, 30 μl of 4-methylumbelliferyl-β-D-galactoside (produced by Sigma) (10 μg/ml) was added to the substrate, the reaction was allowed to proceed at room temperature for 4 hours and then terminated by addition of 130 μl of 0.1 M glycine-sodium hydroxide buffer (pH 10.3), and the fluorescent intensity of the 4-methylumbelliferone produced was determined (Ex: 360 nm; Em: 450 nm). […]

left sciatic nerve = assay: Maximum distance of nerve extension (evoked potential) after sciatic nerve transection in STZ diabetic neuropathy rats; type: in vivo, rat; conditions: left sciatic nerve transected, 10 mg/kg body weight/day orally for 5 weeks
Experimental: Streptozotocin (STZ, 70 mg/kg) was intravenously injected to 6-week-old male SD rats (n=9-10) to prepare diabetic neuropathy models. After 2 weeks of the STZ administration, the left sciatic nerve of the rats was transected under anesthesia, and compound (5) was orally administered at the dose of 10 mg/kg body weight/day for 5 weeks. After the completion of the administration, the rats were anesthetized, and the distance (maximum distance of extension) from the nerve transection site to the detectable site was measured for evoked potential using a device detecting evoked potential [Neuropack 2, manufactured by NIHON KOHDEN CORPORATION]. As a result, the maximum extension of the compound (5) administration group was extended by 2.4 times as compared to that of the compound (5) non-administration group (control group).

## Cc1ccccc1OCCCc1oc(-n2ccnc2C)nc1-c1ccc(Cl)cc1 [compound (5), 4-(4-chlorophenyl)-2-(2-methyl-1-imidazolyl)-5-[3-(2-methylphenoxy)propyl]oxazole]
GDF-15
  increase of GDF-15 expression level as compared to non-administration group (control group): 135%
GDNF
  increase of GDNF content in the sciatic nerve as compared to the control group: 87.9%
Left sciatic nerve; STZ (70 mg/kg i.v.) male SD rats
  maximum extension (distance from nerve transection site to site with detectable evoked potential) relative to control group: 2.4 times
Left sciatic nerve; STZ male SD rats
  effect of neuroneogenesis and of restoring nerve function: an effect of neuroneogenesis and an effect of restoring nerve function were observed
